Experimental data taken from PMC10604720, “Unraveling the Mechanism of Epichaperome Modulation by Zelavespib: Biochemical Insights on Target Occupancy and Extended Residence Time at the Site of Action” (Biomedicines, 2023).

Experiment: Biodistribution / PET pharmacokinetics of [124I]-zelavespib in MDA-MB-468 tumor-bearing mice (data of ref 32, refitted to exponential decay)
Format: in vivo, mouse
Method: Iodine-124 is a ‘non-residualizing’ isotope (i.e., free iodine-124 washes out from cells), and therefore, data derived from positron emission tomography imaging of MDA-MB-468-bearing mice that were administered a tracer amount of [^124I]-PU-AD can be used to determine real-time zelavespib concentrations delivered to tumors. Because positron emission tomography provides information on radioactivity and not molar concentrations, radioactivity data from Pillarsetty et al. were transformed into tumor concentrations to calculate the time-dependent zelavespib concentrations in tumors for an administered dose of 50 mg/kg. The drug concentration (in μM) in the tumor water space, [Drugtumor], at the time t post-administration is therefore: [Drugtumor]t=Drugdose·[Atumor]t/100%·1/W·1×10^6/MW µM where Drugdose is the administered drug dose (in mg), [Atumor]t is the activity concentration (in % injected dose per milliliter, %ID/mL) of the surrogate radiotracer, W is the water space of the tissue (in mL/g), MW is the molecular weight of the drug (i.e., zelavespib), and the factor 1 × 10^6 converts the concentration to μM. For the drug zelavespib and the surrogate radiotracer […] co-injected in a ratio of ~1 to 10,000, the drug itself is essentially the only significant form of the drug–surrogate combination in the tumor. Thus, for a co-administered dose of zelavespib (zelavespibdose in mg) and a tracer amount of [^124I]-PU-AD, the drug concentration in the tumor water space (using an average water space, W = 0.8 mL/g, and the molecular weight MW = 512) is: [Zelavespibtumor]t=Zelavespibdose · [Atumor]t/100%·2.44×10^3 µM
To study the zelavespib–epichaperome interaction in vivo, we selected, for simplicity, an epichaperome-positive tumor model (e.g., subcutaneously xenografted MDA-MB-468 tumors in mice). Using whole-body PET imaging after the injection of ^124I-labeled zelavespib, Pillarsetty et al. reported drug presence in MDA-MB-468 tumors up to 120 h post-single dose administration (~T1/2 = 60 h). Conversely, zelavespib was no longer observed in non-disease, non-metabolizing tissues after ~8 h, clearing rapidly from plasma, paralleled by a similar rapid clearance from normal tissues (i.e., chaperone-positive but epichaperome-negative). In these tumors, a clear relationship between tumor retention, pharmacodynamic effects, and anti-tumor activity was observed, supporting the notion that zelavespib was in residence with its target over the time it resided in these tumors.
These values are very much in agreement with those reported for zelavespib in human patients. […] Contrasting plasma and normal tissues and organs, the distribution of zelavespib in tumors was best fitted using a bi-exponential model. […] The first phase thus reflects the clearance of systemic agent, while the second is attributable to specific tumor retention.
Figure 1 Biodistribution of zelavespib in MDA-MB-468 tumor-bearing mice. (a) Biodistribution of [^124I]-Zelavespib in MDA-MB-468 tumors, organs, tissues, and plasma as per ref. [32]. Data are presented as means ± s.d., five mice per time point. Curves for blood, lung, heart, muscle, bone, and brain were fitted using a one-phase decay equation, and kinetics of zelavespib clearance were determined. Tumor curve was fitted to a two-phase exponential decay. k, kfast, and kslow are the rate constants. Half-life (T1/2) is computed as ln(2)/k. […] (b) Illustrative schematic showing the distinct binding kinetics of zelavespib to epichaperomes (slow off-rate) and to chaperone assemblies (fast off-rate). The tumor pharmacokinetics profile recorded in the Phase 2 interval may represent a direct reflection of the in vivo kinetics of target–drug unbinding. koff, kinetic rate constant for dissociation of an epichaperome-zelavespib assembly. Rt, retention time. […]

[1] = MDA-MB-468 tumor-bearing mice, one-phase exponential decay fit of data of ref 32
[2] = MDA-MB-468 tumor, bi-exponential fit, Phase 1: 0 to 8 h, data of ref 32
[3] = MDA-MB-468 tumor, bi-exponential fit, slow terminal clearance phase, data of ref 32

## CC(C)NCCCn1c(Sc2cc3c(cc2I)OCO3)nc2c(N)ncnc21 [zelavespib]
[1]
  half-life (T1/2), bone: 2.84 h
  half-life (T1/2), brain: 2.65 h
  half-life (T1/2), heart: 3.10 h
  half-life (T1/2), lung: 3.37 h
  half-life (T1/2), muscle: 5.03 h
  half-life (T1/2), plasma/blood: 4.38 h
[2]
  tumor Phase 1 T1/2: 2.87 h
  tumor Phase 1 rate constant k (kfast): 0.241 h⁻¹
[3]
  tumor Phase 2 T1/2: 46.8 h
  tumor Phase 2 rate constant k (kslow): 0.015 h⁻¹
